Assay [1] deals with T1, serotonin-2 receptor (Rattus norvegicus, UniProt P14842). Nature of the assay: biochemical. The method, then: The serotonin-2 receptor (also named 5-hydroxytryptamine-2 or 5HT-2 receptor) binding properties are determined in vitro by measuring the ability of said compounds to inhibit the specific binding of ^3 H-ketanserin, in membrane preparations of frontal/parietal cortex from male Sprague-Dawley rats essentially as described by Battaglia et al. in Life Sciences 33, 2011 (1983). IC50 values, representing the concentration of compound required to displace 50% of ^3 H-ketanserin, are determined by log-logit analysis of the specific binding data.

For assay [2], the target named is T1, serotonin-2 receptor. Description: in vivo displacement of 3H-spiperone binding in rat brain. Further details: serotonin-2 receptors in rat brain; from tissue; host or cells: rat brain, in vivo. The note with it: ip. The method, then:
In vivo, the compounds according to the present application displace the binding of ^3 H-spiperone to serotonin-2 receptors in rat brain. Illustrative of the invention, the compound of example 1 displaces the binding of ^3 H-spiperone with an ED50 value of about 2 mg/Kg i.p.
For orientation: In a radioligand displacement assay an active substance lowers the binding of a labelled ligand.

The target of assay [3] is T1, serotonin-2 receptor. Nature of the assay: 5-hydroxytryptophane-induced head twitch test. The note with it: po, 5-HTP induced head twitch, read-out: effective dose in the head twitch test. Format: in vivo. Further details: membrane preparations of frontal/parietal cortex from male Sprague-Dawley rats; from tissue; host or cells: frontal/parietal cortex membranes, male Sprague-Dawley rat. The method, then: The head twitch test for assessing central nervous system serotonin-2 receptor antagonism in the rat is described in Neuropharmacology 16, 663 (1977) and in J. Pharmacol. Exp. Ther. 228, 133 (1984). The test is carried out as follows:
Male Wistar rats (120-180 g) are fasted for 18 hours prior to testing but allowed water ad libitum. All animals are pretreated with the peripheral decarboxylase inhibitor alpha-methyl-DOPA hydrazine (carbidopa, 25 mg/kg i.p., 4.0 ml/kg) followed 30 minutes later by 5-hydroxy-tryptophane (5-HTP 100 mg/kg s.c., 4.0 ml/kg). Ninety minutes after receiving 5-HTP, the rats are placed individually in plexiglass observation cages and the frequency of head twitches for each animal is counted over a 10 minute observation period. The test compound or vehicle is administered at either 0.5 hour at 1.0 ml/kg i.p. or at 1, 2 or 4 hours at 10 ml/kg p.o. prior to the observation period. ED50 values are determined by probit analysis.

T1 sequence (P14842 whole entry): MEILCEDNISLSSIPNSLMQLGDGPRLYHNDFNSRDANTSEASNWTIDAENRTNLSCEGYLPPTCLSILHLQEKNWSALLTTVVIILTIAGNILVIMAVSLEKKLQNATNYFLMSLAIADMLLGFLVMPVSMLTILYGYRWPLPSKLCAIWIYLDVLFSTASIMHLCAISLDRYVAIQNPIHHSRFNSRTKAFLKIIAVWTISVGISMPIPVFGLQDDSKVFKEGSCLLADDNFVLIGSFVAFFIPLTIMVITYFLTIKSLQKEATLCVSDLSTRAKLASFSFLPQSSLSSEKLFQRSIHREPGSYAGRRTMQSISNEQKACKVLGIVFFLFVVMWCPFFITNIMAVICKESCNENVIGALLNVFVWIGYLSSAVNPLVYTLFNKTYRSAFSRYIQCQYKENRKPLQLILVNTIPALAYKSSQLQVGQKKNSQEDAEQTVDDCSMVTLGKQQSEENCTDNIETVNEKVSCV

As usually defined, the IC50 is the concentration at which inhibition is half-maximal. Read a low IC50 as greater potency in that assay. Regarding `COC(=O)c1c2n(c3ccccc13)Cc1ccccc1N1CCN(C)CC21` (stereo not drawn) [Example 1, methyl 1,3,4,16b-tetrahydro-2-methyl-2H,10H-indolo[2,1-c]pyrazino[1,2-a][1,4]benzodiazepine-16-carboxylate], at serotonin-2 receptor [1], the concentration for half-maximal inhibition (IC50) is about 4 nM. The ED50 was about 2 mg/kg at serotonin-2 receptor [2] and about 3 mg/kg at serotonin-2 receptor [3].

The values are drawn from patent US4737496A, “1,3,4,16b-tetra hydro-2H,10H-indolo[2,1-c]pyrazino-[1,2-a][1,4]benzodiazepines useful as serotonin-2 receptor antagonists” (Ciba-Geigy Corporation, priority 1986, dated 1988).
